Measurements taken from patent US10301291B2, “Imidazole derivative having JNK inhibitory activity and use thereof” (SAMJIN PHARMACEUTICAL CO., LTD., priority 2016, dated 2019).

How the values were obtained:
Format in all cases: biochemical
EGFR = EGFR (Homo sapiens (Human), UniProt P00533); experiment: Kinase profiling service (Reaction Biology Corp.); details: compound 10 μM
Procedure: (§1) An inhibitory activity of the compound (10 μM) of Example 34 against various protein kinases was measured by means of a kinase profiling service (ICso profiler express) of Reaction Biology Corp., wherein ICso, a concentration at which JNK enzyme activity was inhibited 50%, was also measured by sequentially reducing a concentration of the compound.

ERK1 = ERK1 (Homo sapiens (Human), UniProt P27361); experiment: Kinase profiling service (Reaction Biology Corp.); details: compound 10 μM
ERK1, sequence (P27361 whole entry): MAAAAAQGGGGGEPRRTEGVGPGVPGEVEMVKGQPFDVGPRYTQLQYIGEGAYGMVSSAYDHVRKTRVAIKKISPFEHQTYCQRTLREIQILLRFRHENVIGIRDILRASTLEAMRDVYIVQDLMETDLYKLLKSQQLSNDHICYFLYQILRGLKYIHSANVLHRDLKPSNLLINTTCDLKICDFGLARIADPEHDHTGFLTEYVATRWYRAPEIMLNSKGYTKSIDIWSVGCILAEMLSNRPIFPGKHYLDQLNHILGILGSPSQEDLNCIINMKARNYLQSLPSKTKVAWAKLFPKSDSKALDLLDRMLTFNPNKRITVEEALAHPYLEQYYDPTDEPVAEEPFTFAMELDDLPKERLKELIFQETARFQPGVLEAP
Procedure: as §1

LRRK2 = LRRK2 (Homo sapiens (Human), UniProt Q5S007); experiment: Kinase profiling service (Reaction Biology Corp.); details: compound 10 μM
Procedure: as §1

FAK/PTK2 = FAK/PTK2 (Homo sapiens (Human), UniProt Q05397); experiment: Kinase profiling service (Reaction Biology Corp.); details: compound 10 μM
FAK/PTK2, sequence (Q05397 whole entry): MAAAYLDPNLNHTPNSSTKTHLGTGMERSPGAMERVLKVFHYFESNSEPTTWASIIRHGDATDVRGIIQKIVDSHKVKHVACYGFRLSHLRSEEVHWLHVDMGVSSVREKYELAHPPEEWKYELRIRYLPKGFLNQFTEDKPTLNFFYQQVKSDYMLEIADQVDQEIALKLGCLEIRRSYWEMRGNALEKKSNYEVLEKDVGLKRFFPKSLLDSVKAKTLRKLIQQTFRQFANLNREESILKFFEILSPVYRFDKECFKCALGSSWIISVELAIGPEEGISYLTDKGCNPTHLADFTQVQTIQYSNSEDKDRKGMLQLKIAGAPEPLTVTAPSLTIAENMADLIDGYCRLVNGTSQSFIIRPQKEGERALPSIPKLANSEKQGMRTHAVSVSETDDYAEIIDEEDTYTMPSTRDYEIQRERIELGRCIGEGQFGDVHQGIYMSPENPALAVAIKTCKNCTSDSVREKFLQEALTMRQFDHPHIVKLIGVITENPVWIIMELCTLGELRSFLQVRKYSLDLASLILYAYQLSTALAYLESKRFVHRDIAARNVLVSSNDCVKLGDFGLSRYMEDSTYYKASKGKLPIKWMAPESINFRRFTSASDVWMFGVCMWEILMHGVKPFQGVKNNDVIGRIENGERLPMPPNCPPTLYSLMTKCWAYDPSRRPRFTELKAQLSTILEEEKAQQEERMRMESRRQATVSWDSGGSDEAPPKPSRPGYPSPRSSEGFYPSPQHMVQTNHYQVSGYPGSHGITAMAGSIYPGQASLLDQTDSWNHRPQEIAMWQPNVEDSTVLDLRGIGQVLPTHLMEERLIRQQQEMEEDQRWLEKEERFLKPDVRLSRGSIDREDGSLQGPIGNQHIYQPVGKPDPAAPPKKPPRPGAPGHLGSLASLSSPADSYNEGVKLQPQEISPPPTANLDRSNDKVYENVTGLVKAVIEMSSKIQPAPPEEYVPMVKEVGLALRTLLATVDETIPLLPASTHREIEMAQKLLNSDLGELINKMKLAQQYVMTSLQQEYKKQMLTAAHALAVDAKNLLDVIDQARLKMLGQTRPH
Procedure: as §1

JNK2 = JNK2 (Homo sapiens (Human), UniProt P45984); experiment: Kinase profiling service (Reaction Biology Corp.); details: compound 10 μM
JNK2, sequence (P45984 whole entry): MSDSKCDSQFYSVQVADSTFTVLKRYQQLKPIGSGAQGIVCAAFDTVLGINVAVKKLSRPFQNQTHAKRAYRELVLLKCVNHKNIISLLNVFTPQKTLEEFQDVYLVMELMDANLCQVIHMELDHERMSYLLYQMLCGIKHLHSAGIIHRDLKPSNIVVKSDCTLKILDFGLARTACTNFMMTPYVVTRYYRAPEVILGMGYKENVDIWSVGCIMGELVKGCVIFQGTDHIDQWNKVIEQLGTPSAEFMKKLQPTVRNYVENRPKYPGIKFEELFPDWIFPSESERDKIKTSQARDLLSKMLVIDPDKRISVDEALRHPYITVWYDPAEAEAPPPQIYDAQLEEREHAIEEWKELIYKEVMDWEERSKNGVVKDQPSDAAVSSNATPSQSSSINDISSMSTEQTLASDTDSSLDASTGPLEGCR
Procedure: as §1

JNK3 = JNK3 (Homo sapiens (Human), UniProt P53779); experiment: Kinase profiling service (Reaction Biology Corp.); details: compound 10 μM
JNK3, sequence (P53779 whole entry): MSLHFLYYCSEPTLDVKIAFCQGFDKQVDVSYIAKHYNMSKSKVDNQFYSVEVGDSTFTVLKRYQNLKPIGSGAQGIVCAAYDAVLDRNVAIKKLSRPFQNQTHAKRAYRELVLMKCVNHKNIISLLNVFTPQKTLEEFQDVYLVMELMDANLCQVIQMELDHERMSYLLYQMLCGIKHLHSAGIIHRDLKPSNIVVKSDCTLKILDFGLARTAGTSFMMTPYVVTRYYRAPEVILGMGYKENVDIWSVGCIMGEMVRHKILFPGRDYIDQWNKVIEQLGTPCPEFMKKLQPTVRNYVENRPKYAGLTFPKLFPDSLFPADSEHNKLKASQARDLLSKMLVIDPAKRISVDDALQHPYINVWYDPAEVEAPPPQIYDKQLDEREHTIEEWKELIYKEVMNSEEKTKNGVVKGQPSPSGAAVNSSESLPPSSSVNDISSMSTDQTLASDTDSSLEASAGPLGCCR
Procedure: as §1

CDK1/cyclin B = CDK1/cyclin B (Homo sapiens (Human), UniProt P06493); experiment: Kinase profiling service (Reaction Biology Corp.); details: compound 10 μM
CDK1/cyclin B, sequence (P06493 whole entry): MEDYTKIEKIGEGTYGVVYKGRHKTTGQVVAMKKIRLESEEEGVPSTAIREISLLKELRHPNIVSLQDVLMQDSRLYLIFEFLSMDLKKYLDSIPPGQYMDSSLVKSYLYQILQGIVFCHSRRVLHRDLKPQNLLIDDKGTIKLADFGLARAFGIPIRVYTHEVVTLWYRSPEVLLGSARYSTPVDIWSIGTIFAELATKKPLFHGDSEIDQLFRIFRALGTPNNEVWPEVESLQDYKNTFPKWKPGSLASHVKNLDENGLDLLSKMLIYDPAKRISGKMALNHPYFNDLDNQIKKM
CDK1/cyclin B, sequence (P14635 whole entry partner): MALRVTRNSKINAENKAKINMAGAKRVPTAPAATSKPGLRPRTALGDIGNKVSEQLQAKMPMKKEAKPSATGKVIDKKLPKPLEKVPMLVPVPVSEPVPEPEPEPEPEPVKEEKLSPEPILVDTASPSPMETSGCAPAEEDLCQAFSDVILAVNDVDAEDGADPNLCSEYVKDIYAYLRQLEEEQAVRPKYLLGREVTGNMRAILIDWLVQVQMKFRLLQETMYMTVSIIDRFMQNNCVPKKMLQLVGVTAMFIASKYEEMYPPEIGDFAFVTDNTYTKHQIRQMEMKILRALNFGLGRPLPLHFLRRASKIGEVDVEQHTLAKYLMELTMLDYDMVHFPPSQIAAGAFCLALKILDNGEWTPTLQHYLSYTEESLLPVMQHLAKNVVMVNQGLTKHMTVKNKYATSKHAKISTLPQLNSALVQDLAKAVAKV
Procedure: as §1

KDR/VEGFR2 = KDR/VEGFR2 (Homo sapiens (Human), UniProt P35968); experiment: Kinase profiling service (Reaction Biology Corp.); details: compound 10 μM
Procedure: as §1

ABL1 = ABL1 (Homo sapiens (Human), UniProt P00519); experiment: Kinase profiling service (Reaction Biology Corp.); details: compound 10 μM
ABL1, sequence (P00519 whole entry): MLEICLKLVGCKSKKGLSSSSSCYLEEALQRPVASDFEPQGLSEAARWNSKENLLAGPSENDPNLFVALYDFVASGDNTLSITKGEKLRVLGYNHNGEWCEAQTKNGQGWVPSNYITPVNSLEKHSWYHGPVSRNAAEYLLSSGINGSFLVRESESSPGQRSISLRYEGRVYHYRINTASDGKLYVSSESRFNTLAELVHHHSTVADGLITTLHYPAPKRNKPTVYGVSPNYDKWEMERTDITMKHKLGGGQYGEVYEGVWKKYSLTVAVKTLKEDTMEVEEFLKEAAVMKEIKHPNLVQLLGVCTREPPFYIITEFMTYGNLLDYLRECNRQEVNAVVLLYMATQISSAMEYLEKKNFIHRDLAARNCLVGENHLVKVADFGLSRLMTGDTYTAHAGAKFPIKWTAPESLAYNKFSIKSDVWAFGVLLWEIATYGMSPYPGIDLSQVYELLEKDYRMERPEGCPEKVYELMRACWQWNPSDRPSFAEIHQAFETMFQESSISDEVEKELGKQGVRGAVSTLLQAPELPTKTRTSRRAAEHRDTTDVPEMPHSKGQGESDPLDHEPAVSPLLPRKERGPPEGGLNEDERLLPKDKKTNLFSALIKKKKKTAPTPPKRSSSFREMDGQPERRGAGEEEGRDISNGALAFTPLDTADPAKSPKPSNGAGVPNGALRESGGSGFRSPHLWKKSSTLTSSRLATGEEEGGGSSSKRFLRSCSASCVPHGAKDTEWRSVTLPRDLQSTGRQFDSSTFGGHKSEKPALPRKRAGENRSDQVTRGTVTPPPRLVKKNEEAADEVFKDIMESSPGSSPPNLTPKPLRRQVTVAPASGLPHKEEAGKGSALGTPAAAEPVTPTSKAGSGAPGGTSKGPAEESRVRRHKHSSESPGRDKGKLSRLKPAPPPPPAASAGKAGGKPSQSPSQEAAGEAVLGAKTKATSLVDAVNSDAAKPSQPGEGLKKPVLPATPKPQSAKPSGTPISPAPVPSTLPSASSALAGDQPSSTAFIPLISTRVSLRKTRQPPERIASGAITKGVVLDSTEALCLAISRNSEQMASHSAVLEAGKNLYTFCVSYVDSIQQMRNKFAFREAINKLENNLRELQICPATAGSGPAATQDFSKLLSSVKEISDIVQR
Procedure: as §1

various protein kinases = experiment: Inhibitory activity against various protein kinases (selectivity, whole panel); details: kinase panel, compound 10 μM
Procedure: as §1
IC50 values of the compound of Example 34 with regard to various protein kinases were shown in a following Table 3.

[1] = Data 1 and Data 2, read-out: % Enzyme Activity (relative to DMSO controls)

**Q.** Which results are given for N#CCc1cnc(-c2ccc3ccccc3c2)n1-c1ccnc(NC2CCCN(C(=O)C3CC3)C2)n1 (stereo not shown) [Example 34, 2-(1-(2-(1-(cyclopropanecarbonyl)piperidine-3-ylamino)pyrimidine-4-yl)-2-(naphthalene-2-yl)-1H-imidazole-5-yl)acetonitrile]?
**A.** % Enzyme Activity (relative to DMSO controls) (EGFR; Data 1 and Data 2): 67.11%; remaining activity at 10 µM (EGFR; [1]): 68.4%; % Enzyme Activity (relative to DMSO controls) (ERK1; Data 1 and Data 2): 97.98%; remaining activity at 10 µM (ERK1; [1]): 98.5%; % Enzyme Activity (relative to DMSO controls) (LRRK2; Data 1 and Data 2): 95.95%; remaining activity at 10 µM (LRRK2; [1]): 96.3%; % Enzyme Activity (relative to DMSO controls) (FAK/PTK2; Data 1 and Data 2): 99.94%; remaining activity at 10 µM (FAK/PTK2; [1]): 101%; % Enzyme Activity (relative to DMSO controls) (JNK2; Data 1 and Data 2): 1.40%; remaining activity at 10 µM (JNK2; [1]): 1.41%; % Enzyme Activity (relative to DMSO controls) (JNK3; Data 1 and Data 2): 4.81%; remaining activity at 10 µM (JNK3; [1]): 5.04%; % Enzyme Activity (relative to DMSO controls) (CDK1/cyclin B; Data 1 and Data 2): 90.33%; remaining activity at 10 µM (CDK1/cyclin B; [1]): 90.7%; % Enzyme Activity (relative to DMSO controls) (KDR/VEGFR2; Data 1 and Data 2): 73.81%; remaining activity at 10 µM (KDR/VEGFR2; [1]): 74.1%; % Enzyme Activity (relative to DMSO controls) (ABL1; Data 1 and Data 2): 94.12%; remaining activity at 10 µM (ABL1; [1]): 95.3%; selectivity for JNK1/2/3 over other protein kinases (in words) (various protein kinases): selectively inhibiting an activity of JNK1/2/3
